Data reported in ChEMBL document CHEMBL3044638, “Biological evaluation of imidazole derivatives as inhibitors of hydroperoxide lyase, a key enzyme in plant volatile biosynthesis” (J Pestic Sci, 2011).

What was measured:
[1] = molecular target: T1, Fatty acid hydroperoxide lyase, chloroplastic (Solanum lycopersicum, UniProt K4CF70); assay: Binding affinity to recombinant Solanum lycopersicum (tomato) fatty acid 13-hydroperoxide lyase by optical difference spectroscopy
T1 sequence (K4CF70 whole entry): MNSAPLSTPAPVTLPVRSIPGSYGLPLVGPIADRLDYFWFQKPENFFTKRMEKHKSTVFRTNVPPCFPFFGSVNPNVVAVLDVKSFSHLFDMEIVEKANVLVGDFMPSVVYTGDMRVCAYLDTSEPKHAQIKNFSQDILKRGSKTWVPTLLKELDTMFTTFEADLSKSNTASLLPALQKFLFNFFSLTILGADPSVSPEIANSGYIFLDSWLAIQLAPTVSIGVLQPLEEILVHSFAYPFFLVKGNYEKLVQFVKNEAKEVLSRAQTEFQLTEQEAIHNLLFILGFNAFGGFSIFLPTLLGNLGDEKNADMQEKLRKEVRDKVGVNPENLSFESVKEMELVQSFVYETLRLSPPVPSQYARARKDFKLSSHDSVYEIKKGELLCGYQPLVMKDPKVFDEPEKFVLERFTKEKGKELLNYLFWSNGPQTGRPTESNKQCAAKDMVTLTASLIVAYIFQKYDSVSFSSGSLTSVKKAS

[2] = molecular target: T1, Fatty acid hydroperoxide lyase, chloroplastic; assay: Inhibition of recombinant Solanum lycopersicum (tomato) fatty acid 13-hydroperoxide lyase using (13S)-HPOT substrate by spectrophotometry

Kd [1] [µM] | IC50 [2] [µM] | Compound
13.5 | 39 | Clc1ccc(C(Cn2ccnc2)OCc2ccccc2)c(Cl)c1 (centres undefined)
– | > 100 | Clc1ccc(C(Cn2ccnc2)OCc2ccccc2Cl)c(Cl)c1 (centres undefined)
– | 65 | Clc1ccc(COC(Cn2ccnc2)c2ccc(Cl)cc2Cl)c(Cl)c1 (centres undefined) [MICONAZOLE]
– | > 100 | Clc1ccc(C(Cn2ccnc2)OCc2c(Cl)cccc2Cl)c(Cl)c1 (centres undefined) [ISOCONAZOLE]
– | > 100 | Fc1ccc(F)c(COC(Cn2ccnc2)c2ccc(Cl)cc2Cl)c1 (centres undefined)
– | > 100 | Clc1ccc(C(Cn2ccnc2)OCc2ccc(Cl)nc2)c(Cl)c1 (centres undefined)
– | 50 | CC(Cc1ccc(O)c(O)c1)C(C)Cc1ccc(O)c(O)c1 (centres undefined) [NORDIHYDROGUAIARETIC ACID]
– | 46 | Clc1ccc(C(Cn2ccnc2)OCc2cccc(Cl)c2Cl)c(Cl)c1 (centres undefined)
– | > 100 | Fc1ccc(COC(Cn2ccnc2)c2ccc(Cl)cc2Cl)c(F)c1 (centres undefined)
– | > 100 | Clc1cccc(COC(Cn2ccnc2)c2ccc(Cl)cc2Cl)c1 (centres undefined)
– | > 100 | Clc1ccc(C(Cn2ccnc2)OCc2ccc(Cl)c(Cl)c2)c(Cl)c1 (centres undefined)
– | > 100 | Fc1cc(F)cc(COC(Cn2ccnc2)c2ccc(Cl)cc2Cl)c1 (centres undefined)
– | > 100 | Fc1ccc(COC(Cn2ccnc2)c2ccc(Cl)cc2Cl)cc1F (centres undefined)
